According to article PMC11201828, “A Novel Dimeric Short Peptide Derived from α-Defensin-Related Rattusin with Improved Antimicrobial and DNA-Binding Activities” (Biomolecules, 2024):
Values after ≈ are worked out from the molar mass of the structure shown. Positions of bridges follow the written chain, without caps; N, C: chain ends. Residues, ends and D or L forms follow the SMILES beside them. Chains are numbered I, II in the order given.

Key:
[1] = system: E. coli ML-35; experiment: ONPG hydrolysis assay (inner membrane permeability); assay type: cell-based, Escherichia coli; details: 32 µM F2, 4 µM melittin, 16 µM buforin-2, Figure 4
Procedure: The internal membrane permeability was assessed using the ONPG hydrolysis assay, as described previously. E. coli ML-35p, which constitutively expresses cytoplasmic β-galactosidase and periplasmic β-lactamase, is resistant to ampicillin and deficient in lactose permease. E. coli ML-35 was incubated in LB broth containing ampicillin at 37 °C until the optical density (O.D.) at 600 nm reached 1.0. The cells were then washed with a buffer consisting of 97% 1× PBS and 3% LB and diluted to an O.D. 600 of 0.4 in the same buffer. A mixture of 50 μL of serially diluted peptide and 20 μL of dye (ONPG, final concentration 3 mM) was added to 100 μL of the bacterial suspension in a sterilized 96-well plate. Melittin served as a positive control, while buforin-2 was used as a negative control. The hydrolysis of ONPG was measured using a PHOMO Elisa reader (Autobio, Zhengzhou, China) at 405 nm for each time period.

[2] = system: MRSA CCARM 3090; assay type: cell-based, methicillin-resistant Staphylococcus aureus; details: CCARM 3090, 24 h
Procedure: (§1) The minimal inhibitory concentrations (MICs) of the peptides were determined following the broth microdilution method recommended by the Clinical and Laboratory Standards Institute (CLSI). Briefly, bacteria in their mid-logarithmic growth phase were diluted in Mueller–Hinton broth (MHB) (Difco, Franklin Lakes, NJ, USA) and aliquoted into a 96-well microtiter plate at a density of 4 × 10^6 CFU/well. The assay included both Gram-negative bacteria (Escherichia coli, Salmonella typhimurium, and Pseudomonas aeruginosa) and Gram-positive bacteria (Bacillus subtilis, Staphylococcus aureus, and Staphylococcus epidermidis), as well as methicillin-resistant Staphylococcus aureus strains (MRSA: CCARM 3089, CCARM 3090, CCARM 3095). The samples were subjected to a two-fold serial dilution before being added to the wells, and the plate was incubated at 37 °C for 24 h. The MIC was defined as the lowest peptide concentration that prevented visible bacterial growth. All experiments were conducted in triplicate and included appropriate growth and sterility controls.

[3] = system: MRSA CCARM 3095; assay type: cell-based, methicillin-resistant Staphylococcus aureus; details: CCARM 3095, 24 h
Procedure: as §1

[4] = system: MRSA CCARM 3089; assay type: cell-based, methicillin-resistant Staphylococcus aureus; details: CCARM 3089, 24 h
Procedure: as §1

[5] = system: plasmid DNA (pHIS2); experiment: DNA-binding gel retardation assay; details: plasmid pHIS2 145 μg/mL, 37 °C, 1 h, 1% agarose gel; Figure 5
Procedure: We evaluated the DNA-binding ability of F2 and F2 (C4S) monomeric peptides using gel retardation experiments. The concentration of plasmid DNA (pHIS2) was fixed at 145 μg/mL. The peptide was serially diluted in a binding buffer consisting of 10 mM Tris-HCl (pH 8.0), 5% glucose, 50 μg/mL BSA, 1 mM EDTA, and 20 mM KCl. This solution was then mixed with the DNA and incubated at 37 °C for 1 h. After incubation, the DNA–peptide mixture was stained with DNA gel loading dye. The samples were analyzed using 1% agarose gel electrophoresis in 0.5× TAE buffer. Plasmid bands were detected with a UV illuminator (Bio-Rad, Hercules, CA, USA).

[6] = system: S. aureus cytoplasmic membrane; experiment: Membrane depolarization assay, DiSC3-(5) dye; assay type: cell-based, Staphylococcus aureus; details: intact S. aureus; 32 µM F2, 4 µM melittin, 16 µM buforin-2; peptide added after 300 s; Figure 2
Procedure: The cytoplasmic membrane depolarization activity of the peptides was assessed using the membrane-potential-sensitive dye DiSC3-(5), following methodologies previously described in the literature. Staphylococcus aureus was cultured in Luria–Bertani (LB) broth at 37 °C until reaching an optical density (O.D.) at 600 nm of 0.3–0.4, indicative of mid-logarithmic phase growth. The cells were then washed with a buffer containing 20 mM glucose and 5 mM HEPES, and the cell suspension was diluted to an O.D. 600 of 0.05 in the same buffer. Potassium chloride (KCl) was added to achieve a final concentration of 100 mM to equilibrate potassium ion levels. The concentrations used for each peptide in our membrane depolarization assays were based on their respective MICs: 32 µM for F2, 4 µM for Melittin, and 16 µM for Buferin-2.
Fluorescence was monitored using an F-4500 FL fluorescence spectrophotometer (Shimadzu, Kyoto, Japan) with excitation and emission wavelengths set at 622 nm and 670 nm, respectively. Melittin, known for its membrane-disrupting properties, served as a positive control, while buforin-2, which translocates across membranes without causing depolarization, acted as a negative control. Both melittin and buforin-2 were tested at concentrations twice their minimal inhibitory concentration (MIC) levels.

[7] = system: Escherichia coli; assay type: cell-based; details: 24 h
Procedure: as §1

[8] = system: Salmonella typhimurium; assay type: cell-based; details: murium, 24 h
Procedure: as §1

[9] = system: Staphylococcus aureus; assay type: cell-based; details: 24 h
Procedure: as §1

[10] = system: Pseudomonas aeruginosa; assay type: cell-based; details: 24 h
Procedure: as §1

[11] = system: bacterial strains; assay type: cell-based; details: strain not given; see Tables 1 and 2
Procedure: as §1

[12] = system: Bacillus subtilis; assay type: cell-based; details: 24 h
Procedure: as §1

[13] = system: Staphylococcus epidermidis; assay type: cell-based; details: 24 h
Procedure: as §1

[14] = system: S. aureus cell membranes; experiment: SYTOX Green uptake assay; assay type: cell-based, Staphylococcus aureus; details: 32 µM F2, 4 µM melittin, 16 µM buforin-2, Figure 3
Procedure: The membrane permeabilization activity of the peptides was determined using the SYTOX Green uptake assay, as described previously. S. aureus was cultured in LB broth at 37 °C until it reached an optical density (O.D.) at 600 nm of 0.4, indicative of the mid-logarithmic phase. The cells were then washed and diluted to an O.D. 600 of 0.05 using 1× PBS buffer. The dye (SYTOX Green nucleic acid stain) was added to the bacterial suspension at a concentration of […], and the mixture was incubated at 4 °C for 18 h with agitation in the dark. The SYTOX Green-treated bacteria were placed in a quartz cell, where they were simultaneously exposed to the positive control melittin (2× MIC), the negative control buforin-2 (2× MIC), and the F2 dimer (2× MIC). An F-4500 FL fluorescence spectrophotometer (Shimadzu, Kyoto, Japan) was used to monitor fluorescence (excitation 485 nm, emission 520 nm).

[15] = target: F2 (rattusin fragment, residues 12-18, dimeric hairpin loop region) (rat); experiment: RP-HPLC; monomeric F2 (before disulfide bonding) incubated in MIC buffer; formation of the disulfide-bonded dimer monitored by RP-HPLC

Compound | ONPG hydrolysis (absorbance at 405 nm) [1] | MIC [2] [µg/mL] | MIC [3] [µg/mL] | MIC [4] [µg/mL] | peptide concentration giving DNA band retardation [5] [µM] | cytoplasmic membrane depolarization (DiSC3-(5) fluorescence) [6] | MIC [7] [µg/mL] | MIC [8] [µg/mL] | MIC [9] [µg/mL] | MIC [10] [µg/mL] | MIC [11] [µg/mL] | MIC [12] [µg/mL] | MIC [13] [µg/mL] | SYTOX Green uptake (fluorescence intensity) [14] | stoichiometry N [15]
CC(C)[C@H](NC(=O)[C@H](CCCNC(=N)N)NC(=O)[C@@H](N)CCCNC(=N)N)C(=O)N[C@@H](CSSC[C@H](NC(=O)[C@@H](NC(=O)[C@H](CCCNC(=N)N)NC(=O)[C@@H](N)CCCNC(=N)N)C(C)C)C(=O)N[C@@H](CCCNC(=N)N)C(=O)N[C@@H](CC(N)=O)C(=O)N[C@H](C(N)=O)[C@@H](C)O)C(=O)N[C@@H](CCCNC(=N)N)C(=O)N[C@@H](CC(N)=O)C(=O)N[C@H](C(N)=O)[C@@H](C)O [F2] (I: H-RRVCRNT-NH2 / II: H-RRVCRNT-NH2; disulfide I:4-II:4; N-terminus assumed) | did not alter the absorbance | 116 (≈ 64.3 µM) | 58 (≈ 32.1 µM) | 58 (≈ 32.1 µM) | 4 | did not cause any membrane depolarization | 15 (≈ 8.31 µM) | 15 (≈ 8.31 µM) | 58 (≈ 32.1 µM) | 15 (≈ 8.31 µM) | 15 (≈ 8.31 µM) | 29 (≈ 16.1 µM) | 15 (≈ 8.31 µM) | did not show a similar increase in fluorescence intensity | –
F2 (rattusin fragment, residues 12-18, dimeric hairpin loop region) (peptide) | – | – | – | – | – | – | – | – | – | – | – | – | – | – | 2
